Laboratory results as given in article PMC6270099, “Synthesis, Biological Evaluation, and Pharmacokinetic Study of Novel Liguzinediol Prodrugs” (Molecules, 2013).
Marks after values point to notes of the source that are not given here.

Tests used:
[1] = system: isolated Langendorff-perfused rat hearts; experiment: Ex vivo Langendorff-perfused rat heart, cardiac performance; details: for ∆% +dP/dtmax / ∆% LVDP / ∆% −dP/dtmax: increase vs. control; for LVDP: isolated rat heart, mean ± SD, n = 6
Protocol: The cardiac contractility and safety of prodrugs 3–5 were evaluated on the myocardium in normal isolated rat hearts with LZDO as a positive control. Prodrugs 3–5 exerted positive inotropic effects in a dose-dependent manner. The increased rate in left ventricular developed pressure (LVDP, accepted as contractile force), +dP/dtmax (used as an index of contractility), the maximum rate of pressure decrease of the left ventricle ([…], used as an index of diastolic function) and the heart rate (HR, used as an index of heart muscle oxygen consumption) of these compounds vs. control are listed in Table 1.
All commercial reagents and solvents were used without further purification unless otherwise specified. Melting points were determined using a model Buchi B-450 apparatus. ESI-MS were recorded on a TOF mass spectrometer (Applies-Biosystem Mariner). IR spectra were acquired by using a THERMO IR spectrometer Model Nicolet-100. ^1H- and ^13C-NMR spectra (500/125 MHz) were recorded on a Bruker Advance 500 spectrophotometer. Mass spectra were recorded on a ZAB-HS mass spectrometer and are reported as m/z values. HPLC analysis was conducted on a Waters 2695 HPLC instrument equipped with a UV detector (model 2489). LZDO and prodrugs 3–5 were analysed by HPLC, and their purity was confirmed to be greater than 98.0%. In vitro metabolic stability analysis was conducted by a HPLC method, using stock standard solutions of LZDO and prodrugs that were prepared in water at a concentration of 30 mM. The positive inotropic effects on the myocardium of LZDO and prodrugs 3–5 in vitro were evaluated on Langendorff-perfused hearts isolated from normal Sprague-Dawley rats. A HPLC method was applied to measure the rat plasma concentrations of LZDO and prodrug 3 after intragastric administration of prodrug 3 in the rats.
Sprague-Dawley adult male rats weighing 260–320 g were anaesthetised by intraperitoneal administration of 20% urethane (1.2 g/kg). The hearts were quickly removed and placed into an ice-cold modified buffer until contractions ceased. The heart was cleaned of surrounding tissues, mounted on the aortic cannula of the Langendorff perfusion system apparatus, and perfused with oxygenated buffer (mM): NaCl 117, KCl 5.7, CaCl2 1.8, MgCl2 1.7, NaHCO3 4.4, NaH2PO4 1.5, HEPES 20 and glucose 11. The buffer was equilibrated with 95% O2 and 5% CO2 and adjusted to pH 7.4 with NaOH before it entered the heart. An epicardial electrogram was registered using two stainless steel electrodes, one attached to the apex of the heart and the other to the aortic cannula. To obtain an isovolumetrically beating preparation, a latex balloon filled with water and connected by a catheter to a transducer was inserted through the left atrium into the left ventricle and inflated to provide an end-diastolic pressure between 8 and 12 mm Hg. Before each experimental protocol was initiated, the isolated hearts were set at a mean arterial pressure of 60–80 mm Hg and allowed to stabilise at 37 °C for 40–60 min. The isolated rat hearts were then perfused in sequence with 1, 10, and 100 μM of LZDO and prodrugs 3–5 in each group. A RM6240B/C four channel physiological recording instrument (Chengdu Instrument Factory, Chengdu, China) was used for continuous recording of LVSP, LVEDP, HR (derived from electrogram), +dP/dtmax and −dP/dtmax throughout the experiments. The criteria for established stability were LVDP > 50 mmHg, +dP/dtmax > 1,600 mmHg·s^−1, heart rate > 180 beats·min^−1 and normal sinus rhythm. The hearts were not studied if they had weak contractility (+dP/dtmax < 1,600 mmHg·s^−1) and severe arrhythmia. Diastolic balloon pressure was maintained at 8 mmHg. LVDP was calculated as the difference between the systolic and diastolic pressures. The results are expressed as the mean value of hemodynamic variables (n = 6). Statistical analysis was performed using SPSS for Windows (version 13.0). Data were analyzed by One-way ANOVA. […]

[2] = Pharmacokinetics of LZDO in rats after intragastric administration of prodrug 3; type: in vivo, rat; details: rats (data not shown)
Protocol: Pharmacokinetic parameters including half-life, clearance, and bioavailability are important properties of a drug candidate. […] The major pharmacokinetic parameters of LZDO were calculated using a noncompartment model based on statistical moment. The pharmacokinetic parameters of LZDO after intragastric administration of prodrug 3 at 10, 20 and 40 mg/kg in rats are summarized in Table 2. The pharmacokinetic parameters of LZDO after intragastric administering LZDO at 10, 20 and 50 mg/kg in rats are summarized in Table 3 [19]. Prodrug 3 was converted completely within 2 h in rats (data not shown).
Sprague-Dawley rats (male, weighing 200 ± 20 g) were obtained from Slack Laboratory Animal Site (Shanghai, China) and kept in an environmentally controlled breeding room for at least five days before experimentation. The rats were fasted overnight but with free access to water before the test. Animal welfare and experimental procedures were strictly in accordance with the guide for the care and use of laboratory animals. […] The collected blood samples were pretreated by the aforementioned method (sample dilutions were made when necessary) and the concentrations of LZDO and prodrug 3 in each sample were finally determined based on the validated HPLC method. […]

Row | Compound | +dP/dtmax ([1]; 1 μM) | HR ([1]; 1 μM) | −dP/dtmax ([1]; 1 μM) | ∆% +dP/dtmax ([1]; 1 μM) | ∆% LVDP ([1]; 1 μM) | ∆% −dP/dtmax ([1]; 1 μM) | LVDP ([1]; 1 μM) | +dP/dtmax ([1]; 10 μM) | HR ([1]; 10 μM) | −dP/dtmax ([1]; 10 μM) | ∆% +dP/dtmax ([1]; 10 μM) | ∆% LVDP ([1]; 10 μM) | ∆% −dP/dtmax ([1]; 10 μM) | LVDP ([1]; 10 μM) | +dP/dtmax ([1]; 100 μM) | HR ([1]; 100 μM) | −dP/dtmax ([1]; 100 μM) | ∆% +dP/dtmax ([1]; 100 μM) | ∆% −dP/dtmax ([1]; 100 μM) | LVDP ([1]; 100 μM) | other results
1 | Cc1nc(COC(=O)c2ccccc2)c(C)nc1COC(=O)c1ccccc1 [compound 5, 2,5-Dibenzoyloxymethyl-3,6-dimethylpyrazine] | 1,688 ± 95 mmHg/s | 189 ± 30 beat·min^−1 | −1,095 ± 45 mmHg/s | 1.0 ± 1.1% | 5.3 ± 3.3% | 1.3 ± 0.8% | 55 ± 5 mmHg | 1,831 ± 14 ^bd mmHg/s | 196 ± 40 beat·min^−1 | −1,245 ± 48 ^bd mmHg/s | 9.9 ± 5.9% | 13.9 ± 7.4% | 15.3 ± 2.8% | 59 ± 2.5 ^b mmHg | 1,962 ± 70 ^bdf mmHg/s | 213 ± 41 beat·min^−1 | −1,314 ± 63 ^bde mmHg/s | 17.6 ± 6.8% | 21.7 ± 7.2% | 64 ± 2.4 ^bde mmHg | ∆% LVDP ([1]; 100 μM): 24.5 ± 11.2%
2 | CC(=O)OCc1nc(C)c(COC(C)=O)nc1C [compound 3] | 1,641 ± 29 mmHg/s | 203 ± 15 beat·min^−1 | −1,139 ± 76 mmHg/s | 1.9 ± 0.5% | 15.0 ± 5.5% | 4.9 ± 5.9% | 63 ± 2 ^b mmHg | 1,768 ± 91 ^bd mmHg/s | 204 ± 14 beat·min^−1 | −1,184 ± 75 ^a mmHg/s | 9.8 ± 7.0% | 26.3 ± 7.7% | 9.0 ± 5.1% | 69 ± 1.1 ^bd mmHg | 2,123 ± 82 ^bdf mmHg/s | 205 ± 26 beat·min^−1 | −1,313 ± 70 ^bdf mmHg/s | 31.8 ± 5.3% | 20.9 ± 5.1% | 79 ± 1.6 ^bdf mmHg | ∆% LVDP ([1]; 100 μM): 44.7 ± 6.6%; positive inotropic effect on the myocardium ([1]; normal isolated rat hearts, 1, 10, 100 μM): most potent prodrug; time to complete conversion of prodrug in rats [2]: ≤ 2 h
3 | Cc1nc(COC(=O)C(C)C)c(C)nc1COC(=O)C(C)C [compound 4, 2,5-Di-iso-butyryloxymethyl-3,6-dimethylpyrazine] | 1,669 ± 103 mmHg/s | 213 ± 46 beat·min^−1 | −1,101 ± 102 mmHg/s | 2.2 ± 3.4% | 17.4 ± 9.8% | 5.6 ± 8.3% | 63 ± 3 ^b mmHg | 1,765 ± 52 ^a mmHg/s | 196 ± 16 beat·min^−1 | −1,196 ± 54 ^bc mmHg/s | 4.9 ± 5.4% | 14.2 ± 10.0% | 9.9 ± 9.5% | 60 ± 4 ^a mmHg | 1,952 ± 49 ^bdf mmHg/s | 191 ± 29 beat·min^−1 | −1,399 ± 61 ^bdf mmHg/s | 9.0 ± 8.9% | 16.7± 15.2% | 73 ± 2.3 ^bdf mmHg | 
